Here are results for two compounds from patent US12151998B2, “Solid drug form of N-(2,6-bis(1-methylethyl)phenyl)-N′-((1-(4-(dimethylamino)phenyl)cyclopentyl)methyl)urea hydrochloride and compositions, methods and kits related thereto” (The Regents of the University of Michigan, priority 2014, dated 2024).

The test system of one data set is ACC. As to conditions: cited from earlier work.
Data set [1] in a line: Enhanced exposure with stomach acidification: pharmacokinetics of ATR-101 tablets in dogs. The data set is classed as in vivo. Particulars: male beagle dogs, single 125 mg ATR-101 tablet oral; pretreated with pentagastrin compared to pretreatment with famotidine. Here is the method:
To examine pharmacokinetics and exposures of ATR-101 tablets prepared according to Example 6, an in vivo study was carried out in dogs following pretreatment with pentagastrin to decrease stomach pH, or famotidine to increase the stomach pH.
The same cohort of dogs was used in both treatments and included a 5-day wash-out between the treatment arms. Male beagle dogs (approximately 6.5-12.5 kg, n=6) were fasted overnight prior to dosing and through the first 4 hours of blood sample collection. For the pentagastrin arm, the animals were pretreated with a single intramuscular injection of pentagastrin (0.06 mg/mL at a dose level of […] and a dose volume of 0.01 mL/kg) 16 to 22 minutes prior to test article administration. For the famotidine arm, animals were pretreated with a single oral tablet dose of 20 mg famotidine at 59 to 60 minutes prior to tablet administration.
Following tablet administration, each animal received 30 mL of tap water via oral gavage. Animals were treated with a single 125 mg ATR-101 tablet by oral administration. The tablet was made as described in Example 6 above, and contained the ingredients listed in Table 6, but with the amount of ATR-101 at 125 mg (as free base) rather than 500 mg and the remaining ingredients reduced by the same weight percentage. […] ATR-101 concentrations were determined by LC/MSMS.

Molecules are shown by their SMILES. Where a name gives a salt, the structure may show the parent alone.

Take `Clc1ccc(C(c2ccccc2Cl)C(Cl)Cl)cc1` (stereo not drawn) [mitotane]: the “delay of disease progression (average)” value in the data set with ACC (ACC patients that derive a therapeutic benefit) is “five”. In addition, in the data set with ACC (ACC patients, fraction of patients), the “patients with increased progression-free survival” value is given as “one-quarter to one-third”.
Consider `CC(C)c1cccc(C(C)C)c1NC(=O)NCC1(c2ccc(N(C)C)cc2)CCCC1` [ATR-101, N-(2,6-bis(1-methylethyl)phenyl)-N′-((1-(4-(dimethylamino)phenyl)cyclopentyl)methyl)urea hydrochloride], for which the “increase in systemic exposure” value in data set [1] was 57%.
